Laboratory results reported in ChEMBL document CHEMBL1275392, “Assessment of chemoselective neoglycosylation methods using chlorambucil as a model” (2010).

What was measured:
Type in all cases: functional
PC-3 = assay: Growth inhibition of human PC3 cells after 7 days by celltiter-glo assay; details: PC-3, 168 h
IGROV-1 = assay: Growth inhibition of human IGROV1 cells after 7 days by celltiter-glo assay; details: IGROV-1, 168 h
CAKI-1 [1] = assay: Growth inhibition of human Caki1 cells after 7 days by celltiter-glo assay; details: CAKI-1, 168 h
EKVX = assay: Growth inhibition of human EKVX cells at 10 uM after 7 days by celltiter-glo assay; details: 168 h, read-out: GI
SF-539 = assay: Growth inhibition of human SF539 cells after 7 days by celltiter-glo assay; details: SF-539, 168 h
Malme-3M = assay: Growth inhibition of human MALME-3M cells at 10 uM after 7 days by celltiter-glo assay; details: 168 h, read-out: GI
CAKI-1 [2] = assay: Growth inhibition of human Caki1 cells at 10 uM after 7 days by celltiter-glo assay; details: CAKI-1, 168 h, read-out: GI
UACC-62 = assay: Growth inhibition of human UACC62 cells at 10 uM after 7 days by celltiter-glo assay; details: UACC-62, 168 h, read-out: GI
SNB-75 = assay: Growth inhibition of human SNB75 cells at 10 uM after 7 days by celltiter-glo assay; details: SNB-75, 168 h, read-out: GI
MDA-MB-435 = assay: Growth inhibition of human MDA-MB-435 cells after 7 days by celltiter-glo assay; details: MDA-MB-435, 168 h
MDA-MB-231 = assay: Growth inhibition of human MDA-MB-231 cells at 10 uM after 7 days by celltiter-glo assay; details: MDA-MB-231, 168 h, read-out: GI
OVCAR-4 = assay: Growth inhibition of human OVCAR4 cells after 7 days by celltiter-glo assay; details: OVCAR-4, 168 h
HOP-62 = assay: Growth inhibition of human HOP62 cells after 7 days by celltiter-glo assay; details: HOP-62, 168 h
786-0 = assay: Growth inhibition of human 786-0 cells at 10 uM after 7 days by celltiter-glo assay; details: 786-0, 168 h, read-out: GI
MCF7 = assay: Growth inhibition of human MCF7 cells after 7 days by celltiter-glo assay; details: MCF7, 168 h
OVCAR-8 = assay: Growth inhibition of human OVCAR8 cells at 10 uM after 7 days by celltiter-glo assay; details: OVCAR-8, 168 h, read-out: GI
SW-620 = assay: Growth inhibition of human SW620 cells after 7 days by celltiter-glo assay; details: SW-620, 168 h
CCRF-CEM [3] = assay: Growth inhibition of human CCRF-CEM cells after 7 days by celltiter-glo assay; details: 168 h
SF-268 = assay: Growth inhibition of human SF268 cells after 7 days by celltiter-glo assay; details: SF-268, 168 h
HL-60(TB) = assay: Growth inhibition of human HL-60(TB) cells after 7 days by celltiter-glo assay; details: HL-60, 168 h
NCI-H460 = assay: Growth inhibition of human NCI-H460 cells at 10 uM after 7 days by celltiter-glo assay; details: NCI-H460, 168 h, read-out: GI
DU-145 = assay: Growth inhibition of human DU145 cells after 7 days by celltiter-glo assay; details: DU-145, 168 h
CCRF-CEM [4] = assay: Growth inhibition of human CCRF-CEM cells at 10 uM after 7 days by celltiter-glo assay; details: 168 h, read-out: GI
TK-10 = assay: Growth inhibition of human TK10 cells at 10 uM after 7 days by celltiter-glo assay; details: TK-10, 168 h, read-out: GI
ACHN = assay: Growth inhibition of human ACHN cells at 10 uM after 7 days by celltiter-glo assay; details: 168 h, read-out: GI
NCI-H23 = assay: Growth inhibition of human NCI-H23 cells at 10 uM after 7 days by celltiter-glo assay; details: NCI-H23, 168 h, read-out: GI
SNB-19 = assay: Growth inhibition of human SNB19 cells after 7 days by celltiter-glo assay; details: SNB-19, 168 h
HCT-116 = assay: Growth inhibition of human HCT116 cells at 10 uM after 7 days by celltiter-glo assay; details: HCT-116, 168 h, read-out: GI

CON(CCCc1ccc(N(CCCl)CCCl)cc1)C1OC[C@@H](O)[C@@H]1O (stereo partly drawn)
GI50 (PC-3): 11.7 µM | GI50 (IGROV-1): 1.21 µM | GI50 (CAKI-1 [1]): 11.5 µM | inhibition of growth at 10 µM (EKVX): 91.2% | GI50 (SF-539): 8.8 µM | inhibition of growth at 10 µM (Malme-3M): 69.7% | inhibition of growth at 10 µM (CAKI-1 [2]): 13.6% | inhibition of growth at 10 µM (UACC-62): 52.1% | inhibition of growth at 10 µM (SNB-75): 66.7% | GI50 (MDA-MB-435): 21.1 µM | inhibition of growth at 10 µM (MDA-MB-231): 87.5% | GI50 (OVCAR-4): 29.2 µM | GI50 (HOP-62): 8.28 µM | inhibition of growth at 10 µM (786-0): 67.9% | GI50 (MCF7): 1.8 µM | inhibition of growth at 10 µM (OVCAR-8): 68.1% | GI50 (SW-620): 12.4 µM | GI50 (CCRF-CEM [3]): 2.36 µM | GI50 (SF-268): 1.5 µM | GI50 (HL-60(TB)): 1.88 µM | inhibition of growth at 10 µM (NCI-H460): 35.8% | GI50 (DU-145): 1.8 µM | inhibition of growth at 10 µM (CCRF-CEM [4]): 21.2% | inhibition of growth at 10 µM (TK-10): 97.2% | inhibition of growth at 10 µM (ACHN): 14.3% | inhibition of growth at 10 µM (NCI-H23): 54.4% | GI50 (SNB-19): 33.4 µM | inhibition of growth at 10 µM (HCT-116): 69.4%
